Test results taken from patent US20150031102A1, “METHODS AND COMPOSITIONS FOR ENHANCED PRODUCTION OF BUTANOL BY CLOSTRIDIA” (Butrolix LLC, priority 2012, published 2015).

System: Clostridium acetobutylicum strain ATCC 824
Assay: Sequential batch transfer in 24-well culture plates (butanol, residual glucose, butanol yield and productivity)
Assay type: cell-based
Conditions: after 96 hours of culture; for Residual glucose concentration: initial glucose 60 g/L
Description: Each well contained 1.5 mL of growth medium. Peptide was added to each well at the indicated concentration (0, 25, 50, and 100 nM). Every 24 hours fresh medium and peptide treatment were added to a new column of wells then 1.5 μL of the previous day culture was transferred to the new well. Wells were harvested for glucose and butanol analysis after 96 hours of growth. Transfers 1, 4, 7, 10, 13, 16, […].
Briefly, Clostridium spores were germinated in a suitable growth medium for 18-24 hours then […] was transferred to 1.5 mL of fresh medium in each of four wells on a 24-well culture plate. Three of the wells had been treated with 25 nM, 50 nM and 100 nM of peptide, respectively while the fourth well was untreated. Thereafter, every 24 hours […] of each subculture was transferred to 1.5 mL of fresh medium that contained the same peptide treatment or no treatment. Transfers of successive subcultures were done for 24 days, and each subculture was grown for 96 hours before being harvested. Culture supernatants were recovered following centrifugation and were analyzed for butanol and residual glucose concentrations. Determination of optimum peptide treatment levels was based on a graphical comparison of the concentration of butanol in each of the four culture wells for sequential transfers 1, 4, 7, 10, 13, 16, 19, 22 and 24.
Clostridium acetobutylicum strain ATCC 824 was used in all experiments and the growth medium used for sequential batch transfer, time course, and continuous culture experiments contained yeast extract, casamino acids, L-cysteine, L-asparagine, phosphate buffer, trace minerals, and 6% glucose. What are believed to be quorum-sensing peptides that were used in the experiments were chemically synthesized peptides SEQ ID NO: 143 (amino acid sequence: SYPGWSW) and SEQ ID NO: 144 (amino acid sequence: ILILISG). Routine growth of the bacteria as well as the sequential batch and time course experiments were conducted in a Form a Scientific Model 1029 anaerobic gas chamber at 32° C. Continuous cultures were performed at 32° C. using duplicate New Brunswick Scientific BioFlo 3000 apparati with a dilution rate of 0.01 volume per hour, 75 rpm agitation, and nitrogen gas sparging. Optical density of culture samples was measured at 600 nm in a Beckman DU 600 series spectrophotometer and glucose was analyzed using a YSI Model 2700 Select Biochemistry Analyzer with internal glucose calibration. Butanol concentrations were determined by measuring experimental and standard samples using a Varian Saturn 3 Gas Chromatograph/Mass Spectrometer and calculating butanol concentrations using standard curves.
(§1) Sequential batch transfer experiments were carried out in 24-well culture plates that contained 1.5 mL of medium per well. Peptide was added to each well at the indicated concentrations of 0 nM (control), 25 nM, 50 nM, or 100 nM. Every 24 hours, fresh medium and peptide treatments were added to a new column of wells. Then, 1.5 uL of the previous day culture was transferred to the new well. Wells were harvested for glucose and butanol analysis after 96 hours of growth; transfers 1, 4, 7, 10, 13, 16, 19, 22, and 24 were analyzed. Two representative experiments are shown in Tables 30 and 31 and FIGS. 14 and 15.
as §1, with “32” for “30”, “33” for “31”, “16” for “14”, “17.” for “15.”

[1] = 25 nM peptide, transfer 1, Expt. 1
[2] = 25 nM peptide, transfer 4, Expt. 1
[3] = 25 nM peptide, transfer 7, Expt. 1
[4] = 25 nM peptide, transfer 10, Expt. 1
[5] = 25 nM peptide, transfer 13, Expt. 1
[6] = 25 nM peptide, transfer 16, Expt. 1
[7] = 25 nM peptide, transfer 19, Expt. 1
[8] = 25 nM peptide, transfer 22, Expt. 1
[9] = 25 nM peptide, transfer 24, Expt. 1
[10] = 50 nM peptide, transfer 1, Expt. 1
[11] = 50 nM peptide, transfer 4, Expt. 1
[12] = 50 nM peptide, transfer 7, Expt. 1
[13] = 50 nM peptide, transfer 10, Expt. 1
[14] = 50 nM peptide, transfer 13, Expt. 1
[15] = 50 nM peptide, transfer 16, Expt. 1

ILILISG (Derived from Clostridium acetobutylicum SEQ ID NO: 110) [peptide SEQ ID NO: 144]
Butanol concentration [1]: 1.93 g/L | Butanol productivity [1]: 0.02 g butanol/L-h | Butanol yield [1]: 0.03 g butanol/g/glucose | Butanol concentration (25 nM peptide, transfer 1, Expt. 2 (repeat), Table 58): 1.25 g/L | Residual glucose concentration [1]: 43.3 g/L | Residual glucose concentration (25 nM peptide, transfer 1, Expt. 2 (repeat), Table 45): 48.7 g/L | Butanol concentration [2]: 10.01 g/L | Butanol productivity [2]: 0.10 g butanol/L-h | Butanol yield [2]: 0.17 g butanol/g/glucose | Butanol concentration (25 nM peptide, transfer 4, Expt. 2 (repeat), Table 58): 2.36 g/L | Residual glucose concentration [2]: 0.0 g/L | Residual glucose concentration (25 nM peptide, transfer 4, Expt. 2 (repeat), Table 45): 43.6 g/L | Butanol concentration [3]: 7.82 g/L | Butanol productivity [3]: 0.08 g butanol/L-h | Butanol yield [3]: 0.13 g butanol/g/glucose | Butanol concentration (25 nM peptide, transfer 7, Expt. 2 (repeat), Table 58): 2.26 g/L | Residual glucose concentration [3]: .01 g/L | Residual glucose concentration (25 nM peptide, transfer 7, Expt. 2 (repeat), Table 45): 46.5 g/L | Butanol concentration [4]: 11.88 g/L | Butanol productivity [4]: 0.12 g butanol/L-h | Butanol yield [4]: 0.20 g butanol/g/glucose | Butanol concentration (25 nM peptide, transfer 10, Expt. 2 (repeat), Table 58): 3.56 g/L | Residual glucose concentration [4]: 0.1 g/L | Residual glucose concentration (25 nM peptide, transfer 10, Expt. 2 (repeat), Table 45): 42.5 g/L | Butanol concentration [5]: 7.56 g/L | Butanol productivity [5]: 0.08 g butanol/L-h | Butanol yield [5]: 0.13 g butanol/g/glucose | Butanol concentration (25 nM peptide, transfer 13, Expt. 2 (repeat), Table 58): 9.51 g/L | Residual glucose concentration [5]: 0.1 g/L | Residual glucose concentration (25 nM peptide, transfer 13, Expt. 2 (repeat), Table 45): 0.9 g/L | Butanol concentration [6]: 8.33 g/L | Butanol productivity [6]: 0.09 g butanol/L-h | Butanol yield [6]: 0.14 g butanol/g/glucose | Butanol concentration (25 nM peptide, transfer 16, Expt. 2 (repeat), Table 58): 12.57 g/L | Residual glucose concentration [6]: 0.0 g/L | Residual glucose concentration (25 nM peptide, transfer 16, Expt. 2 (repeat), Table 45): 0.1 g/L | Butanol concentration [7]: 7.52 g/L | Butanol productivity [7]: 0.08 g butanol/L-h | Butanol yield [7]: 0.12 g butanol/g/glucose | Butanol concentration (25 nM peptide, transfer 19, Expt. 2 (repeat), Table 58): 4.42 g/L | Residual glucose concentration [7]: 0.1 g/L | Residual glucose concentration (25 nM peptide, transfer 19, Expt. 2 (repeat), Table 45): 0.1 g/L | Butanol concentration [8]: 13.47 g/L | Butanol productivity [8]: 0.14 g butanol/L-h | Butanol yield [8]: 0.22 g butanol/g/glucose | Butanol concentration (25 nM peptide, transfer 22, Expt. 2 (repeat), Table 58): 3.65 g/L | Residual glucose concentration [8]: 9.9 g/L | Residual glucose concentration (25 nM peptide, transfer 22, Expt. 2 (repeat), Table 45): 0.1 g/L | Butanol concentration [9]: 7.27 g/L | Butanol productivity [9]: 0.08 g butanol/L-h | Butanol yield [9]: 0.12 g butanol/g/glucose | Butanol concentration (25 nM peptide, transfer 24, Expt. 2 (repeat), Table 58): 2.75 g/L | Residual glucose concentration [9]: 0.0 g/L | Residual glucose concentration (25 nM peptide, transfer 24, Expt. 2 (repeat), Table 45): 0.1 g/L | Butanol concentration [10]: 1.90 g/L | Butanol productivity [10]: 0.02 g butanol/L-h | Butanol yield [10]: 0.03 g butanol/g/glucose | Butanol concentration (50 nM peptide, transfer 1, Expt. 2 (repeat), Table 58): 1.29 g/L | Residual glucose concentration [10]: 41.8 g/L | Residual glucose concentration (50 nM peptide, transfer 1, Expt. 2 (repeat), Table 45): 47.4 g/L | Butanol concentration [11]: 9.57 g/L | Butanol productivity [11]: 0.10 g butanol/L-h | Butanol yield [11]: 0.16 g butanol/g/glucose | Butanol concentration (50 nM peptide, transfer 4, Expt. 2 (repeat), Table 58): 2.24 g/L | Residual glucose concentration [11]: 0.0 g/L | Residual glucose concentration (50 nM peptide, transfer 4, Expt. 2 (repeat), Table 45): 44.9 g/L | Butanol concentration [12]: 7.58 g/L | Butanol productivity [12]: 0.08 g butanol/L-h | Butanol yield [12]: 0.13 g butanol/g/glucose | Butanol concentration (50 nM peptide, transfer 7, Expt. 2 (repeat), Table 58): 1.98 g/L | Residual glucose concentration [12]: 0.0 g/L | Residual glucose concentration (50 nM peptide, transfer 7, Expt. 2 (repeat), Table 45): 49.8 g/L | Butanol concentration [13]: 11.09 g/L | Butanol productivity [13]: 0.12 g butanol/L-h | Butanol yield [13]: 0.18 g butanol/g/glucose | Butanol concentration (50 nM peptide, transfer 10, Expt. 2 (repeat), Table 58): 2.26 g/L | Residual glucose concentration [13]: 0.0 g/L | Residual glucose concentration (50 nM peptide, transfer 10, Expt. 2 (repeat), Table 45): 48.0 g/L | Butanol concentration [14]: 7.90 g/L | Butanol productivity [14]: 0.08 g butanol/L-h | Butanol yield [14]: 0.13 g butanol/g/glucose | Butanol concentration (50 nM peptide, transfer 13, Expt. 2 (repeat), Table 58): 4.58 g/L | Residual glucose concentration [14]: 0.1 g/L | Residual glucose concentration (50 nM peptide, transfer 13, Expt. 2 (repeat), Table 45): 49.1 g/L | Butanol concentration [15]: 9.34 g/L | Butanol productivity [15]: 0.10 g butanol/L-h | Butanol yield [15]: 0.15 g butanol/g/glucose | Butanol concentration (50 nM peptide, transfer 16, Expt. 2 (repeat), Table 58): 3.34 g/L | Residual glucose concentration [15]: 0.0 g/L | Residual glucose concentration (50 nM peptide, transfer 16, Expt. 2 (repeat), Table 45): 47.7 g/L
